The source of these data is patent publication US12377077B2, “Methods and formulations to treat mitochondrial dysfunction” (The Board of Trustees of the Leland Stanford Junior …, priority 2018, dated 2025).

The structures appear in SMILES notation. Entries after “also recorded” stand apart in the source; their conditions may differ.

The subject of test [1] is CI-deficient fibroblasts. The experiment in a line: Cell viability by Calcein AM in mitochondrial stressor media. The following applies: FIG. 2C. The test is classed as cell-based, human. As to the method:
Fibroblasts previously derived from four patients with primary mitochondrial disease (Surf1, Complex I, Cox10, Polg), three patients with NGLY1 deficiency and four normal controls were used for the study. All samples were obtained with informed consent and approved by the Stanford IRB. Fibroblasts were maintained in DMEM medium containing 8.3 mM glucose and supplemented with 10% fetal bovine serum (FBS)(Fisher Scientific), 1% Penicillin-Streptomycin (10,000 U/mL)(Life Technologies), 1% glutaMAX (Life Technologies), 1% uridine (5 mg/ml) and 1% pyruvate (11 mg/ml) at 37° C., 5% CO2.
For the screening of various compounds, 15×10^3 cells/500 ul media were seeded in quadruplets on 24 well microtiter plates. The following day, the medium was removed, wells washed with PBS and replaced with a mitochondrial stressor media containing DMEM, 1% Penicillin-Streptomycin (10,000 U/mL)(Life Technologies), 10% FCS (Fisher Scientific), 1 mM Galactose (Sigma Aldrich), and 25 μM sodium azide with or without the following compounds: 1 mM AICAR (Medchem Express), 1 mM Metformin (Sigma Aldrich), 100 μM PT1 (Santa Cruz Biotechnology), 100 μM A-769662 (Medchem Express), 100 μM C24 (Medchem Express). Following treatment with the various compounds, tissue cultures were analyzed for growth, oxygen consumption rate, and ATP levels.
Methods: Cell growth was measured by a fluorometric method using Calcein AM (Anaspec). Mitochondrial stressor media was removed, wells washed with PBS and then incubated with 500 ul/well of 800 nM Calcein AM in PBS for 30 min at 37 C, 5% CO2. Cell viability was measured by values obtained using a 485 nm excitation with the Flouroskan Ascent Microplate Fluorometer (Thermo Scientific).

For test [2], the system named is SURF1-deficient fibroblasts. The test is described as above. The test is classed as cell-based, human. The note with it: for cellular viability, dose dependent manner: SURF1 deficient fibroblasts, FIG. 2F. On the procedure:
(§1) Fibroblasts previously derived from four patients with primary mitochondrial disease (Surf1, Complex I, Cox10, Polg), three patients with NGLY1 deficiency and four normal controls were used for the study. All samples were obtained with informed consent and approved by the Stanford IRB. Fibroblasts were maintained in DMEM medium containing 8.3 mM glucose and supplemented with 10% fetal bovine serum (FBS)(Fisher Scientific), 1% Penicillin-Streptomycin (10,000 U/mL)(Life Technologies), 1% glutaMAX (Life Technologies), 1% uridine (5 mg/ml) and 1% pyruvate (11 mg/ml) at 37° C., 5% CO2. For the screening of various compounds, 15×10^3 cells/500 ul media were seeded in quadruplets on 24 well microtiter plates. The following day, the medium was removed, wells washed with PBS and replaced with a mitochondrial stressor media containing DMEM, 1% Penicillin-Streptomycin (10,000 U/mL)(Life Technologies), 10% FCS (Fisher Scientific), 1 mM Galactose (Sigma Aldrich), and 25 μM sodium azide with or without the following compounds: 1 mM AICAR (Medchem Express), 1 mM Metformin (Sigma Aldrich), 100 μM PT1 (Santa Cruz Biotechnology), 100 μ[…] Express). Following treatment with the various compounds, tissue cultures were analyzed for growth, oxygen consumption rate, and ATP levels. Methods: Cell growth was measured by a fluorometric method using Calcein AM (Anaspec). Mitochondrial stressor media was removed, wells washed with PBS and then incubated with 500 ul/well of 800 nM Calcein AM in PBS for 30 min at 37 C, 5% CO2. Cell viability was measured by values obtained using a 485 nm excitation with the Flouroskan Ascent Microplate Fluorometer (Thermo Scientific).

Test [3] has as its system AMPK. Nature of the test: AMPK activity used in determining EC50 (FIG. 16B). The test is classed as biochemical.
The subject of test [4] is SURF1-deficient fibroblasts. Nature of the test: Cellular morphology by phase-contrast microscopy. The test is classed as cell-based, human. The note with it: vs DMSO. The source says: Fibroblasts in tissue culture were visualized by phase-contrast microscopy with a Leica DM IRB microscope at ×10 magnification, and images were taken with the Hamamatsu ORCA-ER camera.

Test [5] concerns phosphorylated ACC (pACC). The experiment in a line: pACC western blot in mitochondrial-defective patient cells. The test is classed as cell-based, human. The note with it: mitochondrial-defective patient cells vs DMSO; FIG. 16A.
Test [6] deals with POLG-deficient fibroblasts. The experiment in a line: Cell viability by Calcein AM in mitochondrial stressor media. The note with it: FIG. 2D. The test is classed as cell-based, human. As to the method: as §1
For test [7], the system named is Sco2 deficient mice. Nature of the test: Rotarod running test in Sco2 mice. The test is classed as in vivo. The note with it: KO/KI mice; vehicle 176.1 sec. From the text:
(§2) Methods: To examine the effects of AMPK agonists on in vivo systems with mitochondrial dysfunction, MK8722 was used to treat a mouse model of mitochondrial disease. These mice have mitochondrial Complex IV deficiency caused by deficient cytochrome C oxidase assembly protein, SCO2, and harbor a Sco2 knock-out (KO) allele and a Sco2 knock-in (KI) allele expressing an E→K mutation at position 129 (E129K). The E129K mutation corresponds to the E140K mutation found in almost all human SCO2-mutated patients. (See e.g., Yang et al, Analysis of mouse models of cytochrome c oxidase deficiency owing to mutations in Sco2. Hum Mol Genet. 2010 Jan. 1; 19(1):170-80; the disclosure of which is incorporated by reference herein in its entirety.) The predominant phenotype of Sco2 deficient mice is reduced locomotor function and ocular defects, both common findings in patients with primary mitochondrial disease. The Sco2 mice were grouped into four treatment groups: Sco2 KI/KO+MK8722, Sco2 KI/KO+DMSO (vehicle), Control KI/WT+MK8722, Control KI/WT+DMSO with 7-9 mice per group. 1.5-month old Sco2 mice were treated once daily by oral gavage with MK8722 (10 mg/kg) or vehicle (DMSO) for 14 weeks. Locomotor function was evaluated using the activity chamber, rotarod, and hanging-wire tests and ocular structure using optical coherence tomography (OCT).

In test [8] the test system is Sco2 deficient mice. The experiment in a line: Activity chamber test in Sco2 mice. The test is classed as in vivo.
Text: as §2

Test [9] has as its system phosphorylated ACC (pACC). Nature of the test: pACC western blot in skeletal muscle of Sco2 KI/KO mice. The test is classed as in vivo. The note with it: KI/KO mice vs vehicle; FIGS. 11F-11G.
Text: as §2

The test system of test [10] is Sco2 deficient mice. The experiment in a line: Ocular structure by optical coherence tomography (OCT) in Sco2 mice. The test is classed as in vivo. The following applies: for thickness of the retinal nerve fiber layer (RNFL): 10 mg/kg once daily oral gavage.
Text: as §2

Test [11] concerns mitochondrial cytochrome C oxidase (CytoC) and succinate dehydrogenase (SDH) activities. The experiment in a line: Histological staining of skeletal muscle for mitochondrial enzyme activities. The test is classed as in vivo. The following applies: Sco2 KI/KO mice vs vehicle, FIG. 11D.
Text: as §2

Test [12] deals with Sco2 deficient mice. Nature of the test: Hanging wire test in Sco2 mice. The test is classed as in vivo. The following applies: KO/KI mice; vehicle 173.2 sec.
Text: as §2

In test [13] the test system is glycogen content. Nature of the test: Histological assessment of glycogen in skeletal muscle. The test is classed as in vivo. The following applies: Sco2 KI/KO mice vs untreated; FIG. 11E.
Text: as §2

In test [14] the test system is COX10-deficient fibroblasts. Nature of the test: Cell viability by Calcein AM in mitochondrial stressor media. The test is classed as cell-based, human. The following applies: FIG. 2B. On the procedure:
as §1

As for `Cc1ccc(OCCSc2ncccn2)c(Br)c1` [ZLN024], in test [1], the survival / viability entry is given as “improved survival”.
With `O=C(O)c1c[nH]c2cc(Cl)c(-c3ccc(C4(O)CCC4)cc3)cc12` [PF-06409577], the “cellular viability, dose dependent manner” value (“cellular viability” below) in test [2] is recorded as “increasing levels of cellular viability”; in test [2] (listed as PF-04609577) it was “improved the viability”. For the same compound, the EC50 in [3] is […]. Besides, the cellular morphology entry in [4] is on record as “improved cellular morphology”; in test [4] (listed as PF-04609577) it was “improved cell morphology”.
In the case of `OCC1(c2ccc(-c3cc4nc(O[C@@H]5CO[C@H]6[C@@H]5OC[C@H]6O)[nH]c4cc3Cl)cc2)CC1` [PF-739], in test [2], the “cellular viability” value is “increasing levels of cellular viability; also recorded: improved the viability”. Moreover, the cellular morphology result in [4] is “improved cellular morphology; also recorded: improved cell morphology”.
Turning to `O=C(O)c1c[nH]c2cc(Cl)c(-c3ccc(C4(O)CCC4)s3)cc12` [EV8016, 6-chloro-5-(5-(1-hydroxycyclobutyl)thiophen-2-yl)-1H-indole-3-carboxylic acid], the concentration giving a half-maximal response (EC50) in test [3] worked out at 232 nM. The “ACC phosphorylation (AMPK activation)” value in test [5] is given as “capable of activating AMPK”.
Consider `N#Cc1c(O)c2c(-c3ccc(-c4ccccc4O)cc3)csc2[nH]c1=O` [Compound A-769662], for which the survival / viability entry in test [6] and in test [1] was “improved survival” throughout.
Regarding `O[C@@H]1CO[C@H]2[C@@H]1OC[C@H]2Oc1nc2nc(-c3ccc(-c4ccccc4)cc3)c(Cl)cc2[nH]1` [MK-8722], in [2], the “cellular viability” value is “increasing levels of cellular viability; also recorded: improved the viability”. This compound also returned a rotarod running time in test [7] of 248.1 s. In [8] (KO/KI mice, 8 weeks of treatment, vehicle 1516.7 cm), the “distance moved in the activity chamber” value turned out to be 2337.8 cm. For the same compound, the “activity in activity chamber” value in test [8] (knock-out/knock-in mice, FIG. 11A) is “returns to levels comparable with knock-in/wild-type mice”. In test [9], the “ACC phosphorylation in skeletal muscle” value is given as “increased phosphorylation of ACC; also recorded: increase in ACC phosphorylation”. Further, the “thickness of the retinal nerve fiber layer (RNFL)” value in test [10] (KI/WT mice, vehicle 72.7 μm) came to 74.7 μm; in [10] (Sco2 KI/KO mice, vehicle 74.1 μm), 77 μm. Moreover, the “retinal thickness, degradation” value in test [10] (treated vs vehicle (VEH) mice, FIG. 9E) is “less degradation”. Further, the cellular morphology entry in [4] was “improved cellular morphology; also recorded: improved cell morphology”. Moreover, in test [11], the “intensity of histological stains indicative of CytoC and SDH activities” value is “increased”. In addition, the hanging wire time in [12] is 312.5 s. Besides, in [13], the “glycogen content of skeletal muscle” value is given as “increased glycogen content”.
Take `NC(=O)c1ncn([C@@H]2O[C@H](CO)[C@@H](O)[C@H]2O)c1N` [AICAR]: the survival / viability result in test [6], in test [14] and in [1] was “does not improve cell viability; also recorded: did not improve survival” in each case. The “mean cell survival increased” value in [2] (SURF1 cells, vs untreated control treated with PBS) is 57%.
